For the assay, the system named is isolated guinea pig gallbladder. In words: Functional activity in isolated guinea pig gallbladder preparation. Format: cell-based. To be noted: Cavia porcellus, expressed as % CCK-induced maximal response; for activation at 1 µM: 1 × 10^-6 M test compound, read-out: %Contraction (1 × 10^-6 M); for activation at 30 µM: 3 × 10^-5 M test compound, read-out: % Contraction (3 × 10^-5 M).

The values below come from patent publication US5859007A, “CCK or gastrin modulating benzo [b][1,4] diazepines derivatives” (Glaxo Wellcome Inc., priority 1994, dated 1999).

For `COc1ccc(N(C(=O)CN2C(=O)C(Cc3nccn3-c3ccccc3)C(=O)N(c3ccccc3)c3ccccc32)C(C)C)cc1` (stereo not shown) [Example 46, 2-(2,4-Dioxo-5-phenyl-3-(1-phenyl-imidazo-2-yl)methyl-2,3,4,5-tetrahydro-benzo[b][1,4]diazepin-1-yl)-N-isopropyl-N-(4-methoxy)-phenyl acetamide], the activation at 1 µM was found to be 6% and the activation at 30 µM turned out to be 6%.
For `COc1ccc(N(C(=O)CN2C(=O)C(Cc3noc4ccccc34)C(=O)N(c3ccccc3)c3ccccc32)C(C)C)cc1` (stereo not shown) [Example 47, 2-(3-Benzo[d]isoxazol-3-ylmethyl-2,4-dioxo-5-phenyl-2,3,4,5-tetrahydro-benzo[b][1,4]diazepin-1-yl)-N-isopropyl-N-(4-methoxy-phenyl) acetamide], the activation at 1 µM worked out at 92%.
`COc1ccc(N(C(=O)CN2C(=O)C(Cc3noc4ncccc34)C(=O)N(c3ccccc3)c3ccccc32)C(C)C)cc1` (stereo not shown) [Example 48, N-Isopropyl-2-(3-isoxazolo[5,4-b]pyridin-3-ylmethyl-2,4-dioxo-5-phenyl-2,3,4,5-tetrahydro-benzo[b][1,4]diazepin-1-yl)-N-(4-methoxy-phenyl) acetamide]: the activation at 30 µM amounted to 75%.
On to `COc1ccc(N(C(=O)CN2C(=O)C(Cc3n[nH]c4ncccc34)C(=O)N(c3ccccc3)c3ccccc32)C(C)C)cc1` (stereo not shown) [Example 50, 2-[2,4-Dioxo-5-phenyl-3-(1H-pyrazolo[3,4-b]pyridin-3-ylmethyl)-2,3,4,5-tetrahydro-benzo[b][1,4]diazepin-1-yl]-N-isopropyl-N-(4-methoxy-phenyl)-acetamide], for which the activation at 1 µM was determined as 83% and the activation at 30 µM was determined as 94%.
`COc1ccc(N(C(=O)CN2C(=O)C(Cc3n[nH]c4c3CCCC4)C(=O)N(c3ccccc3)c3ccccc32)C(C)C)cc1` (stereo not shown) [Example 51, 2-[2,4-Dioxo-5-phenyl-3-(4,5,6,7-tetrahydro-1H-indazol-3-ylmethyl)-2,3,4,5-tetrahydro-benzo[b][1,4]diazepin-1-yl]-N-isopropyl-N-(4-methoxy-phenyl)-acetamide]: the activation at 1 µM was found to be 82% and the activation at 30 µM was 83%.
In the same order, the values of `CC(C)N(C(=O)CN1C(=O)C(Cc2n[nH]c3ccccc23)C(=O)N(c2ccccc2)c2ccccc21)c1ccc(C(F)(F)F)cc1` (stereo not shown) [Example 52, 2-[3-(1H-Indazol-3-ylmethyl)-2,4-dioxo-5-phenyl-2,3,4,5-tetrahydro-benzo[b][1,4]diazepin-1-yl]-N-isopropyl-N-(4-trifluoromethyl-phenyl)-acetamide] are 70% and 96%.
As to `COc1ccc(N(C(=O)CN2C(=O)C(Cc3n[nH]c4ccccc34)(OC)C(=O)N(c3cccnc3)c3ccccc32)C(C)C)cc1` (stereo not shown) [Example 53, 2-[3-(1H-Indazol-3-ylmethyl)-3-methoxy-2,4-dioxo-5-pyridin-3-yl-2,3,4,5-tetrahydro-benzo[b][1,4]diazepin-1-yl]-N-isopropyl-N-(4-methoxy-phenyl)-acetamide], the activation at 1 µM was 96% and the activation at 30 µM came to 103%.
Turning to `COc1ccc(N(C(=O)CN2C(=O)C(Cc3cc(C)nn3Cc3ccccc3)C(=O)N(c3ccccc3)c3ccccc32)C(C)C)cc1` (stereo not shown) [Example 54, 2-[3-(2-Benzyl-5-methyl-2H-pyrazol-3ylmethyl)-2,4-dioxo-5-phenyl-2,3,4,5-tetrahydro-benzo[b][1,4]diazepin-1-yl]-N-isopropyl-N-(4-methoxy-phenyl)-acetamide], the activation at 1 µM worked out at 63% and the activation at 30 µM was 43%.
For the molecule `COc1ccc(N(C(=O)CN2C(=O)C(Cc3cc(C)n[nH]3)C(=O)N(c3ccccc3)c3ccccc32)C(C)C)cc1` (stereo not shown) [Example 55, N-Isopropyl-N-(4-methoxy-phenyl)-2-[3-(5-methyl-2H-pyrazol-3ylmethyl)-2,4-dioxo-5-phenyl-2,3,4,5-tetrahydro-benzo[b][1,4]diazepin-1-yl]-acetamide], the activation at 1 µM stood at 21%.
For `COc1ccc(N(C(=O)CN2C(=O)C(Cn3cnc4ccccc43)C(=O)N(c3ccccc3)c3ccccc32)C(C)C)cc1` (stereo not shown) [Example 56, 2-(3-Benzoimidazol-1-ylmethyl-2,4-dioxo-5-phenyl-2,3,4,5-tetrahydro-benzo[b][1,4]diazepin-1-yl]-N-isopropyl-N-(4-methoxy-phenyl)-acetamide], the activation at 1 µM is 90% and the activation at 30 µM was 98%.
For the molecule `CC(C)N(C(=O)CN1C(=O)C(Cc2n[nH]c3ccccc23)C(=O)N(c2ccccc2)c2ccccc21)c1ccc(F)cc1` (stereo not shown) [Example 57, N-(4-Fluoro-phenyl)-2-[3-(1H-indazol-3-ylmethyl)-2,4-dioxo-5-phenyl-2,3,4,5-tetrahydro-benzo[b][1,4]diazepin-1-yl]-N-isopropyl-acetamide], the activation at 1 µM turned out to be 99% and the activation at 30 µM was 134%.
As to `COc1ccc(N(C(=O)CN2C(=O)C(Cc3n[nH]c4ccccc34)C(=O)N(c3ccsc3)c3ccccc32)C(C)C)cc1` (stereo not shown) [Example 58, 2-[3-(1H-Indazol-3-ylmethyl)-2,4-dioxo-5-thiophen-3-yl-2,3,4,5-tetrahydro-benzo[b][1,4]diazepin-1-yl]-N-isopropyl-N-(4-methoxy-phenyl)-acetamide], the activation at 1 µM turned out to be 80% and the activation at 30 µM came to 95%.
In the case of `COc1ccc(N(C(=O)CN2C(=O)C(Cc3n[nH]c4ccccc34)C(=O)N(c3cccs3)c3ccccc32)C(C)C)cc1` (stereo not shown) [Example 59, 2-[3-(1H-Indazol-3-ylmethyl)-2,4-dioxo-5-thiophen-2-yl-2,3,4,5-tetrahydro-benzo[b][1,4]diazepin-1-yl]-N-isopropyl-N-(4-methoxy-phenyl)-acetamide], the activation at 1 µM was found to be 100% and the activation at 30 µM came to 102%.
Consider `Cc1ccc(N(C(=O)CN2C(=O)C(Cc3n[nH]c4cc(F)ccc34)C(=O)N(c3ccccc3)c3ccccc32)C(C)C)cc1` (stereo not shown) [Example 60, 2-[3-(6-Fluoro-1H-indazol-3-ylmethyl)-2,4-dioxo-5-phenyl-2,3,4,5,tetrahydro-benzo[b][1,4]diazepin-1-yl]-N-isopropyl-N-p-tolyl-acetamide], for which the activation at 1 µM is 94% and the activation at 30 µM turned out to be 81%.
The matching figures for `O=C1C(Cc2n[nH]c3ccccc23)C(=O)N(c2ccccc2)c2ccccc2N1CC(=O)N(c1ccccc1)C1CC1` (stereo not shown) [Example 61, N-Cyclopropyl-2-[3-(1H-indazol-3-ylmethyl)-2,4-dioxo-5-phenyl-2,3,4,5,tetrahydro-benzo[b][1,4]diazepin-1-yl]-N-phenyl-acetamide]: 63% and 77%.
As for `COc1ccc(N(C(=O)CN2C(=O)C(Cc3n[nH]c4ccccc34)C(=O)N(c3ccccc3)c3ccccc32)C2CCCC2)cc1` (stereo not shown) [Example 62, N-Cyclopentyl-2-[3-(1H-indazol-3-ylmethyl)-2,4-dioxo-5-phenyl-2,3,4,5,tetrahydro-benzo[b][1,4]diazepin-1-yl]-N-(4-methoxy-phenyl)-acetamide], the activation at 1 µM is 96% and the activation at 30 µM turned out to be 86%.
With `CC(C)N(C(=O)CN1C(=O)C(Cc2n[nH]c3cc(F)ccc23)C(=O)N(c2ccccc2)c2ccccc21)c1ccc(F)cc1` (stereo not shown) [Example 63, 2-[3-(6-Fluoro-1H-indazol-3-ylmethyl)-2,4-dioxo-5-phenyl-2,3,4,5,tetrahydro-benzo[b][1,4]diazepin-1-yl]-N-(4-fluoro-phenyl)-N-isopropyl-acetamide], the activation at 1 µM was 77% and the activation at 30 µM came out at 96%.
As to `CC(=O)n1nc(CC2C(=O)N(CC(=O)N(c3ccc(F)cc3)C(C)C)c3ccccc3N(c3ccccc3)C2=O)c2ccc(F)cc21` (stereo not shown) [Example 64, 2-[3-(1-Acetyl-6-fluoro-1H-indazol-3-ylmethyl)-2,4-dioxo-5-phenyl-2,3,4,5,tetrahydro-benzo[b][1,4]diazepin-1-yl]-N-(4-fluoro-phenyl)-N-isopropyl-acetamide], the activation at 1 µM turned out to be 67% and the activation at 30 µM came out at 98%.
The matching figures for `CC(C)(C)N(C(=O)CN1C(=O)C(Cc2n[nH]c3ccccc23)C(=O)N(c2ccccc2)c2ccccc21)c1ccccc1` (stereo not shown) [Example 65, N-tert-Butyl-2-[3-(1H-indazol-3-ylmethyl)-2,4-dioxo-5-phenyl-2,3,4,5,tetrahydro-benzo[b][1,4]diazepin-1-yl]-N-phenyl-acetamide]: 88% and 93%.
Consider `COc1ccc(N(C(=O)CN2C(=O)C(Cc3n[nH]c4ccccc34)C(=O)N(c3cccnc3)c3cc(F)ccc32)C(C)C)cc1` (stereo not shown) [Example 66, 2-[7-Fluoro-3-(1H-indazol-3-ylmethyl)-2,4-dioxo-5-pyridin-3-yl-2,3,4,5-tetrahydro-benzo[b][1,4]diazepin-1-yl]-N-isopropyl-N-(4-methoxy-phenyl)-acetamide], for which the activation at 1 µM came to 97% and the activation at 30 µM amounted to 116%.
Turning to `COc1ccc(N(C(=O)CN2C(=O)C(Cc3n[nH]c4ccccc34)C(=O)N(c3ccccc3)c3cc(F)c(F)cc32)C(C)C)cc1` (stereo not shown) [Example 67, 2-[7,8-Difluoro-3-(1H-indazol-3-ylmethyl)-2,4-dioxo-5-phenyl-2,3,4,5-tetrahydro-benzo[b][1,4]diazepin-1-yl]-N-isopropyl-N-(4-methoxy-phenyl)-acetamide], the activation at 1 µM is 78% and the activation at 30 µM came to 102%.
Consider `CC(C)N(C(=O)CN1C(=O)C(Cc2n[nH]c3ccccc23)C(=O)N(c2ccccc2)c2ccccc21)c1ccccc1` (stereo not shown) [Example 68, 2-[3-(1H-indazol-3-ylmethyl)-2,4-dioxo-5-phenyl-2,3,4,5-tetrahydro-benzo[b][1,4]diazepin-1-yl]-N-isopropyl-N-phenyl-acetamide], for which the activation at 1 µM was 93% and the activation at 30 µM amounted to 99%.
Regarding `CC(C)N(C(=O)CN1C(=O)C(Cc2n[nH]c3cc(F)ccc23)C(=O)N(c2ccccc2)c2ccccc21)c1ccccc1` (stereo not shown) [Example 69, 2-[3-(6-Fluoro-1H-indazol-3-ylmethyl)-2,4-dioxo-5-phenyl-2,3,4,5-tetrahydro-benzo[b][1,4]diazepin-1-yl]-N-isopropyl-N-phenyl-acetamide], the activation at 1 µM was 98% and the activation at 30 µM was 92%.
